# Laboratory results published in patent US12285448B2, “Bifidobacterium breve capable of relieving rheumatoid arthritis and application thereof” (Jiangnan University, priority 2020, dated 2025).
# Tests used:
# Assay type in all cases: in vivo, Wistar rats
# [1] = tested on: rats with rheumatoid arthritis (type II collagen-induced arthritis model); test: Body weight, joint thickness and clinical score of rats with type II collagen-induced arthritis; details: CIA rats
# Procedure: A Type II Collagen-induced arthritis (CIA) model is a classic RA animal model. The onset of CIA has many similarities with rheumatoid arthritis (RA), such as synovial hyperplasia, pannus formation, and cartilage destruction. At present, […]. Therefore, in Examples 5-9, a type II collagen-induced arthritis (CIA) model was used as an RA animal model, and LGG was used as a control.
# (§1) MRS liquid media (containing 0.05 g/100 mL cysteine) were respectively inoculated with the B. breve CCFM1078 obtained in Example 1 and LGG and anaerobically cultured at 37° C. for 18 h, and then transferred into fresh MRS liquid media (containing 0.05 g/100 mL cysteine) and cultured at same conditions for 24 h. Bacteria were centrifuged at 6000 g for 15 min, washed with 0.9 g/100 mL normal saline, and centrifuged again at 6000 g for 10 min to obtain the bacteria. The bacteria of the B. breve CCFM1078 and the LGG were resuspended to a cell concentration of 5×10^9 CFU/mL with sterile normal saline with a concentration of 0.9 g/100 mL, and bacterial solutions containing the B. breve CCFM1078 and the LGG were obtained.
# (§2) 60 7-week-old SPF (Specific Pathogen Free) female Wistar rats were raised at a room temperature of 22-24° C., a humidity of 40-60%, and an alternation of 12 h/12 h day and night. […]
# IL-1β = test: Level of IL-1β in the serum of rats with rheumatoid arthritis (ELISA); details: four weeks after booster immunization; model group 835 ng/L, normal group 143 ng/L
# Procedure: as §1
# as §2, with “night. After being raised for 1 week under the condition of ad libitum, the rats were randomly divided into 5 groups with 12 rats in each group.” for “night.”
# (§3) Four weeks after the booster immunization, blood was collected and the rats were sacrificed. The rat serum was collected, and the levels of IL-1β and TNFα in the serum of the rats in each group were determined by an ELISA kit.
# TNFα = test: Level of TNFα in the serum of rats with rheumatoid arthritis (ELISA); details: four weeks after booster immunization; model group 14 ng/L, normal group 9.8 ng/L
# Procedure: as §1
# as §2, with “night. After being raised for 1 week under the condition of ad libitum, the rats were randomly divided into 5 groups with 12 rats in each group.” for “night.”
# as §3
# IL-10 = test: Level of IL-10 in the serum of rats with rheumatoid arthritis (ELISA); details: four weeks after booster immunization; model group 1.64 ng/L, normal group 1.59 ng/L
# Procedure: as §1
# Sixty 7-week-old SPF (Specific Pathogen Free) female Wistar rats were raised at a room temperature of 22-24° C., a humidity of 40-60%, and an alternation of 12 h/12 h day and night. After being raised for 1 week under the condition of ad libitum, the rats were randomly divided into 5 groups with 12 rats in each group. […]
# Four weeks after the booster immunization, blood was collected and the rats were sacrificed. The rat serum was collected, and the level of IL-10 in the serum of the rats in each group were determined by an ELISA kit.
# [2] = Content of short-chain fatty acids in the feces of rats with rheumatoid arthritis (GCMS); details: four weeks after booster immunization
# Procedure: as §1
# (§4) Sixty 7-week-old SPF (Specific Pathogen Free) female Wistar rats were raised at a room temperature of 22-24° C., a humidity of 40-60%, and an alternation of 12 h/12 h day and night. After being raised for 1 week under the condition of ad libitum, the rats were randomly divided into 5 groups with 12 rats in each group. The 5 groups were a normal group, a model group, a drug group administered with methotrexate by gavage, an LGG group administered with LGG by gavage, and a CCFM1078 group administered with B. breve CCFM1078 by gavage.
# The experiment was started after the rats were adaptively raised for one week, and lasted for eight weeks. During the two weeks before modelling, each rat in the normal group, the drug group and the model group was administered by gavage with 1.5 mL of sterile normal saline with a concentration of 0.9 g/100 mL per day, each rat in the LGG group was administered by gavage with 1.5 mL of an LGG bacterial solution with a concentration of 5×10^9 CFU/mL per day, and each rat in the CCFM1078 group was administered by gavage with 1.5 mL of a B. breve CCFM1078 bacterial solution with a concentration of 5×10^9 CFU/mL per day. The third week to the fourth week was a modelling period. On the first day of modelling, a bovine type II collagen solution (Chondrex, 20022) and a Freund's incomplete adjuvant (Chondrex, 7002) were mixed in equal volumes and emulsified to form a complete emulsion (the emulsion was prepared for immediate use, and the prepared emulsion was used within 1 h). A rat was anesthetized with isoflurane and immobilized, the whole rat tail root was disinfected with 75% (v/v) alcohol, and then the rat was subjected to primary immunization. In the primary immunization, 0.15 mL of the complete emulsion was accurately pipetted and injected subcutaneously at 1.5 cm from the tail root of the rat. One week later, booster immunization was conducted by the same treatment method, that is, 0.15 mL of the complete emulsion was accurately pipetted and injected subcutaneously at 2.0 cm from the tail root of the rat. The rats in the normal group were injected with only the same volume of sterile normal saline by the same method. […]
# Th17 cells = test: Proportion of Th17 cells in the mesenteric lymph nodes of rats with rheumatoid arthritis (flow cytometry); details: four weeks after booster immunization; model group 13.97 times the normal group
# Procedure: as §1, §4
# The experiment was started after the rats were adaptively raised for one week, and lasted for eight weeks. […]
smiles,measurement,setting,value
"CN(Cc1cnc2nc(N)nc(N)c2n1)c1ccc(C(=O)N[C@@H](CCC(=O)O)C(=O)O)cc1 [methotrexate, Methotrexate]",paw thickness (comparison in words),[1]; FIG. 3,significantly lower than that of the rats in the model group and restored to normal in the last week
same,body weight change (trend),"[1]; gavage, after booster immunization, FIG. 2",not significant
same,level of IL-1β in the serum,IL-1β,159 ng/L
same,level of TNFα in the serum,TNFα,12 ng/L
same,concentration of IL-10 in the serum,IL-10,1.62 ng/L
same,content of acetic acid in the feces relative to the model group,[2],1.1 times
same,content of butyric acid in the feces relative to the model group,[2],1.3 times
same,content of isobutyric acid in the feces relative to the model group,[2],1.3 times
same,content of pentanoic acid in the feces relative to the model group,[2],1 times
same,content of propionic acid in the feces relative to the model group,[2],1.2 times
same,proportion of Th17 cells in the mesenteric lymph nodes relative to the model group,Th17 cells,12.7%
